What was measured:
[1] = biological target: MRGPRD (Homo sapiens, UniProt Q8TDS7); conditions: cited from earlier work; for activity as MRGPRD agonists relative to β-ala: compared with β-ala
[2] = system: mast cell degranulation; assay: 48/80-mediated mast cell degranulation, Evan's blue dye in the skin, i.d. β-alanine pre-treatment; assay type: in vivo, C57BL/6 mice
Procedure: Compound 48/80, the condensation product of N-methyl p-methoxyphenethylamine and formaldehyde, is a well-known chemical that induces rapid mast cell degranulation and associated edema. The degree of edema in the skin is measured by the amount of Evan's blue dye in the skin. […] In mice that lack MRGPRD neurons, β-alanine had no effect on 48/80's ability to activate mast cells (compare columns 5 and 6). This is a specificity control since the neurons that express the receptor for β-alanine are absent.

[3] = system: wound healing pathways; conditions: 100 mM injected twice daily for 2 days, WT C57BL/6; compared with published tape stripping RNAseq data
Procedure: Wild type C57BL/6 mice were injected with 100 mM β-alanine or vehicle twice daily for 2 days. Skin at the treated sites were harvested and mRNA was obtained and subjected to RNAseq. Genes with increased gene expression in the β-alanine treated group were anayzed by pathway analysis.

[4] = system: mast cell degranulation; conditions: 5% topical, shaved flank skin twice daily for 2 days, then i.d. compound 48/80, read ten minutes later; figure values in μg per g of tissue, p<0.01
Procedure: Mice were then given Evans' blue dye i.v. followed by an intradermal injection of compound 48/80. Ten minutes later, the amount of Evans' blue dye present in the skin (μg·g^−1 of tissue) as an indication of the extent of mast cell degranulation was determined by skin biopsy, enzymatic digestion, and […] evaluation.

[5] = system: DNFB contact hypersensitivity; conditions: MRGPRD-DTR mice treated with DT (MRGPRD-ablated), same regimen
Procedure: Referring to FIG. 2, cohorts of C57BL/6 mice (n=5) were either pre-treated by i.d. injection of b-alanine (WT+b-ala) or vehicle (WT) on the abdomen for 2 days followed by sensitization at the same site with 0.2% DNFB (a chemical sensitizer). Five days later 0.2% DNFB was applied to the ear. The increased degree of ear swelling on the indicated day compared to ear thickness prior to application of DNFB was measured. Increased ear thickness was employed a surrogate for the amount of immune response to DNFB was measured. As a specificity control, MRGPRD-DTR mice treated with DT to ablate MRGPRD-expressing neurons (labeled MRGPRD in FIG. DD), and were treated similarly (MRGPRD and MRGPRD+b-ala).

Chain of MRGPRD (Q8TDS7 whole entry): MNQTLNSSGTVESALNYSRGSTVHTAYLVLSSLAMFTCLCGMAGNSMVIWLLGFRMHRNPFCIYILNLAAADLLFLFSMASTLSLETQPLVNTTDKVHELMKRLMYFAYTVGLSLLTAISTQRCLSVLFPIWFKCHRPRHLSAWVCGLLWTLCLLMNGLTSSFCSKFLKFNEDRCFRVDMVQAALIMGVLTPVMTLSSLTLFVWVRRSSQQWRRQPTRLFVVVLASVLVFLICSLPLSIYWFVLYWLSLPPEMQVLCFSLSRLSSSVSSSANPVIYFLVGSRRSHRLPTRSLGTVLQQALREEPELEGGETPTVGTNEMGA

| Structure (SMILES) | activity as MRGPRD agonists relative to β-ala [1] | Evan's blue dye in the skin (edema, mast cell degranulation) after compound 48/80 ([2]; C57BL/6 mice, i.d. pre-treatment for 2 days, then i.d. compound 48/80, FIG. 1 columns 3 and 4) | Evan's blue dye in the skin (48/80's ability to activate mast cells) ([2]; mice that lack MRGPRD neurons (specificity control), FIG. 1 columns 5 and 6) | cutaneous mast cell function ([2]; wild-type mice (summary statement of Example 1)) | forskolin-stimulated cAMP production ([1]; cells expressing MRGPRD) | pathways activated in skin (RNAseq pathway analysis) [3] | mast cell degranulation (dermal Evan's blue dye) [4] | ear swelling (immune response to DNFB) [5] |
| --- | --- | --- | --- | --- | --- | --- | --- | --- |
| CC(CN)C(=O)O (stereo not drawn) [β-AIBA, 3-aminoisobutyric acid] | significantly weaker |  |  |  |  |  |  |  |
| NCCCC(=O)O [GABA, 4-aminobutanoic acid] | significantly weaker |  |  |  |  |  |  |  |
| NCCC(=O)O [β-alanine, 3-aminopropanoic acid] |  | inhibited this effect | no effect | sufficient to suppress | decreases | activates wound healing pathways | suppresses | no effect |
